Converted amounts (≈) assume the structure as drawn. “And” between values parts separate entries of the source, which are not always exact repeats. Equal entries are not always repeated. Residues, ends and D or L forms follow the SMILES beside them.
What was measured:
[1] = system: Swiss mice, kidney; assay: Nephrotoxicity in mice (kidney histopathology); type: in vivo, mouse; conditions: for Kidney histopathology (SQS Score): 72 mg/kg/d subcutaneously in six divided doses every 2 h, n = 3; for Kidney histopathology, mice with the SQS score: mouse, in vivo
In short: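 Female Swiss mice (7-week-old, 22–28 g) received lipopeptides in saline either s.c. at 12 mg/kg ×6 every 2 h (total 72 mg/kg, n = 3) or i.p. at 20 or 25 mg/kg ×6 every 2 h (total 120 mg/kg, n = 6; 150 mg/kg, n = 3). Right kidney collected 20 h after last dose, fixed in 10% buffered formalin (pH 7.4), histology scored blinded.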

[2] = system: A. baumannii ATCC 19606; type: cell-based, Acinetobacter baumannii; conditions: ATCC 19606
In short: (§1)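 Susceptibility: microdilution MIC in CaMHB.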

[3] = system: A. baumannii FADDI-AB030; type: cell-based, Acinetobacter baumannii; conditions: FADDI-AB030
In short: (§2)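 Cation-adjusted Mueller–Hinton broth was used with the broth microdilution method to set MICs against clinical isolates. A separate run on P. aeruginosa ATCC 27853 added 10% Survanta® (v/v, 2.5 mg/mL phospholipids) to gauge lung-surfactant binding of polymyxins.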

[4] = system: A. baumannii FADDI-AB034; type: cell-based, Acinetobacter baumannii; conditions: FADDI-AB034
In short: as §2

[5] = system: K. pneumoniae FADDI-KP032; type: cell-based, Klebsiella pneumoniae; conditions: FADDI-KP032
In short: as §2

[6] = system: K. pneumoniae FADDI-KP065; type: cell-based, Klebsiella pneumoniae; conditions: FADDI-KP065
In short: as §2

[7] = system: P. aeruginosa FADDI-PA038; type: cell-based, Pseudomonas aeruginosa; conditions: FADDI-PA038
In short: as §2

[8] = system: P. aeruginosa ATCC 27853; type: cell-based, Pseudomonas aeruginosa; conditions: ATCC 27853
In short: as §1

[9] = system: P. aeruginosa FADDI-PA025; type: cell-based, Pseudomonas aeruginosa; conditions: FADDI-PA025
In short: as §2

[10] = system: P. aeruginosa ATCC 27853; assay: Neutropenic mouse bloodstream infection model; type: in vivo; conditions: single IV dose 4 mg/kg; for Log10 CFU/mL blood at 4 h, Mean / Δlog10 CFU/mL blood (mean) / Log10 CFU/mL blood at 4 h, single mouse: 4 h; for Δlog10 CFU/mL blood (mean): treated minus control, mean of replicates; for Δlog10 CFU/mL blood (mean) / Log10 CFU/mL blood at 4 h, single mouse / Delta Log10 CFU/mL blood at 4 h, single mouse: 4 mg/kg; for Delta Log10 CFU/mL blood at 4 h, single mouse: treated mouse minus mean of vehicle mice
In short: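 Female Swiss mice made neutropenic with cyclophosphamide (150 mg/kg day −4, 100 mg/kg day −1), infected IV with 50 µL of 4 × 10^8 CFU/mL. Lipopeptide 4 mg/kg (free base) IV at 2 h post-inoculation, n = 3. Efficacy = Δlog10 CFU/mL blood versus saline at 4 h post-dose.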

[11] = Distribution, accumulation and metabolism in mouse kidneys (ME-SALDI-MS imaging, histology); type: in vivo; conditions: 10 μmol/kg SC; for kidney histology, SQS scores: 6 doses Day 1 and 3 doses Day 2; for level at time molar: female, Swiss, mouse, in vivo, 10 umol/kg, 6 doses Day 1 and 3 doses Day 2, 2 h after last dose, read-out: Concentration in the kidney cortex region
Description: At 2 h after the last dose on Day 2, mice were rapidly euthanized. The left kidney was collected, flash-frozen in liquid nitrogen, and stored at -80 C for MS imaging analysis. The right kidney was fixed in 10% formalin for histological examination (Histopathology and Organ Pathology Unit at the University of Melbourne). The level of histological damage to the kidneys was graded as previously described. […] A total of 1 μL was spotted onto electrochemically etched, porous-silicon semiconductor substrates for desorption/ionization on silicon (DIOS)[39]. […] For lipopeptide distribution in mouse kidneys, serially sectioned 8-μm frozen slices of the kidney were loaded onto DIOS substrates and coated with a thin layer of α-CHCA using a matrix sprayer (TM-Sprayer, HTX) for MSI analysis. […] Mounted tissue was scanned for imaging alignment (Epson Perfection […]) and calibrated as previously described. Resulting polymyxin maps were visualized and normalized against the total ion current (TIC) of each section using IonView software (Shimadzu). Lipopeptide accumulation in mouse kidneys was determined by simultaneous […] analysis of kidney tissue from treated animals and serial dilutions of the drug deposited on control kidney tissue. […] The signal intensities were compared to the corresponding concentration standard curve to calculate the concentration of lipopeptide present. Putative metabolites in the kidneys treated with lipopeptides were identified by […]. Control kidney sections were used to differentiate lipopeptide metabolites from endogenous metabolites and MS/MS data from lipopeptide standards were used to differentiate lipopeptide metabolites from the parent ion generated via CID processed in the acquisition software (MALDI Solutions, Shimadzu). Levels of accumulated lipopeptide metabolites were determined by normalization to the parent ion in MSI data.

| Structure (SMILES) | Kidney histopathology (SQS Score) [1] | Kidney histopathology, mice with the SQS score [1] | MIC A. baumannii ATCC 19606 [2] | MIC A. baumannii FADDI-AB030 [3] | MIC A. baumannii FADDI-AB034 [4] | MIC K. pneumoniae FADDI-KP032 [5] | MIC K. pneumoniae FADDI-KP065 [6] | MIC P. aeruginosa FADDI-PA038 [7] | MIC P. aeruginosa ATCC 27853 [8] | MIC P. aeruginosa FADDI-PA025 [9] | Log10 CFU/mL blood at 4 h, Mean [10] | Δlog10 CFU/mL blood (mean) [10] | Log10 CFU/mL blood at 4 h, single mouse [10] | Delta Log10 CFU/mL blood at 4 h, single mouse [10] | kidney histology, SQS scores [11] | level at time molar [11] |
| --- | --- | --- | --- | --- | --- | --- | --- | --- | --- | --- | --- | --- | --- | --- | --- | --- |
| CC[C@@H]1NC(=O)[C@@H](CC(C)C)NC(=O)[C@H](CCN)NC(=O)[C@@H](NC(=O)[C@H](CN)NC(=O)[C@@H](NC(=O)[C@H](CCN)NC(=O)c2ccc(Cl)cc2)[C@@H](C)O)CCNC(=O)[C@H]([C@@H](C)O)NC(=O)[C@H](CCN)NC(=O)[C@H](CCN)NC1=O [Lipopeptide F378] (HELM PEPTIDE1{[O=C(c1ccc(Cl)cc1)[*:2]].[Dab].T.[NC[C@H](N[*:1])C(=O)[*:2]].[Dab].[Dab].[dL].[Abu].[Dab].[Dab].T}$PEPTIDE1,PEPTIDE1,5:R3-11:R2$$$V2.0) | 0 (SQS 0 = no significant change (overall score, <1)) | 3/3 | 1 µg/mL (≈ 0.888 µM) | 1 µg/mL (≈ 0.888 µM) | 0.25 µg/mL (≈ 0.222 µM) | 0.25 µg/mL (≈ 0.222 µM) | 1 µg/mL (≈ 0.888 µM) | 1 µg/mL (≈ 0.888 µM) | 0.5 µg/mL (≈ 0.444 µM) | 2 µg/mL (≈ 1.78 µM) | 4.71 Log10 CFU/mL blood | −3.23 log10 CFU/mL blood | 4.78 Log10 CFU/mL blood and 4.64 Log10 CFU/mL blood | -3.16 Log10 CFU/mL blood and -3.30 Log10 CFU/mL blood | – | – |
| CC[C@@H]1NC(=O)[C@@H](CC(C)C)NC(=O)[C@H](CCN)NC(=O)[C@@H](NC(=O)[C@H](CN)NC(=O)[C@@H](NC(=O)[C@H](CCN)NC(=O)c2ccc(C)cc2)[C@@H](C)O)CCNC(=O)[C@H]([C@@H](C)O)NC(=O)[C@H](CCN)NC(=O)[C@H](CCN)NC1=O [Lipopeptide F383] (HELM PEPTIDE1{[Cc1ccc(C(=O)[*:2])cc1].[Dab].T.[NC[C@H](N[*:1])C(=O)[*:2]].[Dab].[Dab].[dL].[Abu].[Dab].[Dab].T}$PEPTIDE1,PEPTIDE1,5:R3-11:R2$$$V2.0) | 0 (SQS 0 = no significant change (overall score, <1)) | 3/3 | 2 µg/mL (≈ 1.81 µM) | 2 µg/mL (≈ 1.81 µM) | 2 µg/mL (≈ 1.81 µM) | 1 µg/mL (≈ 0.905 µM) | 1 µg/mL (≈ 0.905 µM) | 1 µg/mL (≈ 0.905 µM) | 0.5 µg/mL (≈ 0.452 µM) | 2 µg/mL (≈ 1.81 µM) | 4.91 Log10 CFU/mL blood | −3.02 log10 CFU/mL blood | 5.76 Log10 CFU/mL blood and 4.40 Log10 CFU/mL blood and 4.59 Log10 CFU/mL blood | -2.18 Log10 CFU/mL blood and -3.54 Log10 CFU/mL blood and -3.35 Log10 CFU/mL blood | – | – |
| CC[C@@H]1NC(=O)[C@@H](CC(C)C)NC(=O)[C@H](CCN)NC(=O)[C@@H](NC(=O)[C@H](CN)NC(=O)[C@@H](NC(=O)[C@H](CCN)NC(=O)c2ccc(Cl)cc2F)[C@@H](C)O)CCNC(=O)[C@H]([C@@H](C)O)NC(=O)[C@H](CCN)NC(=O)[C@H](CCN)NC1=O [Lipopeptide F448] (HELM PEPTIDE1{[O=C(c1ccc(Cl)cc1F)[*:2]].[Dab].T.[NC[C@H](N[*:1])C(=O)[*:2]].[Dab].[Dab].[dL].[Abu].[Dab].[Dab].T}$PEPTIDE1,PEPTIDE1,5:R3-11:R2$$$V2.0) | 0 (SQS 0 = no significant change (overall score, <1)) | 3/3 | 2 µg/mL (≈ 1.75 µM) | 1 µg/mL (≈ 0.874 µM) | 0.5 µg/mL (≈ 0.437 µM) | <0.125 µg/mL | 0.25 µg/mL (≈ 0.219 µM) | 0.5 µg/mL (≈ 0.437 µM) | 0.5 µg/mL (≈ 0.437 µM) | 1 µg/mL (≈ 0.874 µM) | 4.51 Log10 CFU/mL blood | −3.06 log10 CFU/mL blood | 4.51 Log10 CFU/mL blood and 4.31 Log10 CFU/mL blood and 4.72 Log10 CFU/mL blood | -3.07 Log10 CFU/mL blood and -3.27 Log10 CFU/mL blood and -2.85 Log10 CFU/mL blood | – | – |
| CC[C@@H]1NC(=O)[C@@H](CC(C)C)NC(=O)[C@H](CCN)NC(=O)[C@@H](NC(=O)[C@H](CN)NC(=O)[C@@H](NC(=O)[C@H](CCN)NC(=O)c2ccc(F)cc2Cl)[C@@H](C)O)CCNC(=O)[C@H]([C@@H](C)O)NC(=O)[C@H](CCN)NC(=O)[C@H](CCN)NC1=O [Lipopeptide F449] (HELM PEPTIDE1{[O=C(c1ccc(F)cc1Cl)[*:2]].[Dab].T.[NC[C@H](N[*:1])C(=O)[*:2]].[Dab].[Dab].[dL].[Abu].[Dab].[Dab].T}$PEPTIDE1,PEPTIDE1,5:R3-11:R2$$$V2.0) | 0 (SQS 0 = no significant change (overall score, <1)) | 3/3 | 4 µg/mL (≈ 3.5 µM) | 1 µg/mL (≈ 0.874 µM) | 1 µg/mL (≈ 0.874 µM) | 0.25 µg/mL (≈ 0.219 µM) | 0.25 µg/mL (≈ 0.219 µM) | 1 µg/mL (≈ 0.874 µM) | 0.5 µg/mL (≈ 0.437 µM) | 2 µg/mL (≈ 1.75 µM) | 5.26 Log10 CFU/mL blood | −2.32 log10 CFU/mL blood | 5.17 Log10 CFU/mL blood and 5.18 Log10 CFU/mL blood and 5.44 Log10 CFU/mL blood | -2.41 Log10 CFU/mL blood and -2.40 Log10 CFU/mL blood and -2.14 Log10 CFU/mL blood | – | – |
| CC[C@H](C)CCCCC(=O)N[C@@H](CCN)C(=O)N[C@H](C(=O)N[C@@H](CCN)C(=O)N[C@H]1CCNC(=O)[C@H]([C@@H](C)O)NC(=O)[C@H](CCN)NC(=O)[C@H](CCN)NC(=O)[C@H](CC(C)C)NC(=O)[C@@H](CC(C)C)NC(=O)[C@H](CCN)NC1=O)[C@@H](C)O [colistin A] (HELM PEPTIDE1{[CC[C@H](C)CCCCC(=O)[*:2]].[Dab].T.[Dab].[Dab].[Dab].[dL].L.[Dab].[Dab].T}$PEPTIDE1,PEPTIDE1,5:R3-11:R2$$$V2.0) | – | – | – | – | – | – | – | – | – | – | – | – | – | – | +5 (SQS + 5 = severe damage (overall score, >60)) | 86.7 µM |
| CC[C@H](C)CCCCC(=O)N[C@@H](CCN)C(=O)N[C@H](C(=O)N[C@@H](CCN)C(=O)N[C@H]1CCNC(=O)[C@H]([C@@H](C)O)NC(=O)[C@H](CCN)NC(=O)[C@H](CCN)NC(=O)[C@H](CC(C)C)NC(=O)[C@@H](Cc2ccccc2)NC(=O)[C@H](CCN)NC1=O)[C@@H](C)O [polymyxin B1] (HELM PEPTIDE1{[CC[C@H](C)CCCCC(=O)[*:2]].[Dab].T.[Dab].[Dab].[Dab].[dF].L.[Dab].[Dab].T}$PEPTIDE1,PEPTIDE1,5:R3-11:R2$$$V2.0) | – | – | – | – | – | – | – | – | – | – | – | – | – | – | +5 (SQS + 5 = severe damage (overall score, >60)) | 38.2 µM |

Reference: PMC8956739, “A synthetic lipopeptide targeting top-priority multidrug-resistant Gram-negative pathogens” (Nature Communications, 2022)
